The values below are quoted from earlier work in patent publication US20060270852A1, “PREPARATION OF BISQUINOLINE COMPOUNDS” (priority 2005, published 2006).

Experiment in series [1]: not given
The source holds these as a separate data set.

The subject of series [2] is falciparum and vivax malaria.

Where two headings read alike, the source gives them in different places.

For the molecule `Clc1ccc2c(N3CCN(CCCN4CCN(c5ccnc6cc(Cl)ccc56)CC4)CC3)ccnc2c1` [Piperaquine phosphate], the solubility in water entry was “soluble in water”.
For the molecule `Clc1ccc2c(N3CCN(CCCN4CCN(c5ccnc6cc(Cl)ccc56)CC4)CC3)ccnc2c1` [piperaquine, 1,3-Bis-[4-(7′-chloro-quinoline-4′)piperazine-1]propane], the “dissociation constant [pKa]” value in series [1] is 8.92. Further, under “at neutral and alkaline pH”, the solubility in water result is “only sparingly soluble in water”. Further, the “efficacy compared with chloroquine” value in series [2] (against falciparum and vivax malaria) is “at least as effective as”. Besides, in series [2] (in vivo), the “tolerability compared with chloroquine” value is listed as “better tolerated than”.
